Source: US10829478B2, “5-[3-[piperazin-1-yl]-3-oxo-propyl]-imidazolidine-2,4-dione derivatives as ADAMTS 4 and 5 inhibitors for treating e.g. osteoarthritis” (Galapagos NV, priority 2016, dated 2020)
pIC50: −log10 of the molar value.

Biological target: human ADAMTS-5 (Homo sapiens (Human), UniProt Q9UNA0)
Assay: hADAMTS-5 TBIS-1 cleavage assay, Protocol 3
Assay type: biochemical
Details: 90 min at 37° C., read-out: hADAMTS-5 potency IC50
Protocol: The reaction is initiated by adding to the assay plate TBIS-1 (10 μL, 4.5 μM, Anaspec) in the same buffer.
Finally, the fluorescence is read on the Envision (Perkin Elmer) after an incubation of 90 min at 37° C. (Excitation 485 nm, emission 530).

Sequence of human ADAMTS-5 (Q9UNA0 262-930): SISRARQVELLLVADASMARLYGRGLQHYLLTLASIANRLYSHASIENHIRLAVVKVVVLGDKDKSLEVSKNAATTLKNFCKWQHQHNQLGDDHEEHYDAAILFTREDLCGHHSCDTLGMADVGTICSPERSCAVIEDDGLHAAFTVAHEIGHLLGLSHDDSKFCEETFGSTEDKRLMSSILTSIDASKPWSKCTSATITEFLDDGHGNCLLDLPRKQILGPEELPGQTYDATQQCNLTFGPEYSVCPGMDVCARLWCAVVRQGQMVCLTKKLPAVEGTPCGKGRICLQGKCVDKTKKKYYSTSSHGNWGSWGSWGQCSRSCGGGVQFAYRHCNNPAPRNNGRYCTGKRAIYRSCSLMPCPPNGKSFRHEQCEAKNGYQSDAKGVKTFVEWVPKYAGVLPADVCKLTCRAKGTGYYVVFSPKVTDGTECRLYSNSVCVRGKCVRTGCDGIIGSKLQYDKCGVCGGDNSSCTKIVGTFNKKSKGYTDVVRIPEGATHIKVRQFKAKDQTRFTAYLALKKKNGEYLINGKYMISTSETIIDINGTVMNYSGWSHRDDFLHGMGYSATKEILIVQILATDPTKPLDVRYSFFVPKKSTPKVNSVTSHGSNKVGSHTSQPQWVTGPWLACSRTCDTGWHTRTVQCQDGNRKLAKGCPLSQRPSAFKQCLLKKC

Row | Structure (SMILES) | pIC50
1 | COc1cc(N2CCN(C(=O)[C@@H](C)C[C@@]3(C)NC(=O)NC3=O)C[C@@H]2C)c(C)cc1Cl (mixture of isomers) [Cpd 45, 5-[3-[(3S)-4-(4-chloro-5-methoxy-2-methyl-phenyl)-3-methyl-piperazin-1-yl]-2-methyl-3-oxo-propyl]-5-methyl-imidazolidine-2,4-dione] | < 7.00
2 | COC[C@]1(C[C@H](C)C(=O)N2CCN(c3cc(C)c(Cl)c(OC)c3)[C@@H](C)C2)NC(=O)NC1=O (mixture of isomers) [Cpd 126, 5-[3-[(3S)-4-(4-chloro-3-methoxy-5-methyl-phenyl)-3-methyl-piperazin-1-yl]-2-methyl-3-oxo-propyl]-5-(methoxymethyl)imidazolidine-2,4-dione] | 7.30 to 7.60
3 | COc1cc(N2CCN(C(=O)[C@@H](C)C[C@@]3(C)NC(=O)NC3=O)C[C@@H]2C)cc(OC)c1Cl (stereo in doubt) [Cpd 44, 5-[3-[(3S)-4-(4-chloro-3,5-dimethoxy-phenyl)-3-methyl-piperazin-1-yl]-2-methyl-3-oxo-propyl]-5-methyl-imidazolidine-2,4-dione] | 7.00 to 7.30
4 | COc1cc(N2CCN(C(=O)[C@H](C)C[C@@]3(C4CC4)NC(=O)NC3=O)C[C@@H]2C)cc(F)c1F (stereo in doubt) [Cpd 134, 5-cyclopropyl-5-[3-[(3S)-4-(3,4-difluoro-5-methoxy-phenyl)-3-methyl-piperazin-1-yl]-2-methyl-3-oxo-propyl]imidazolidine-2,4-dione] | < 7.00

Biological target: human ADAMTS6 (Homo sapiens (Human), UniProt Q9UKP5)
Sequence (Q9UKP5 other isoform, or with tags, fused parts or gaps): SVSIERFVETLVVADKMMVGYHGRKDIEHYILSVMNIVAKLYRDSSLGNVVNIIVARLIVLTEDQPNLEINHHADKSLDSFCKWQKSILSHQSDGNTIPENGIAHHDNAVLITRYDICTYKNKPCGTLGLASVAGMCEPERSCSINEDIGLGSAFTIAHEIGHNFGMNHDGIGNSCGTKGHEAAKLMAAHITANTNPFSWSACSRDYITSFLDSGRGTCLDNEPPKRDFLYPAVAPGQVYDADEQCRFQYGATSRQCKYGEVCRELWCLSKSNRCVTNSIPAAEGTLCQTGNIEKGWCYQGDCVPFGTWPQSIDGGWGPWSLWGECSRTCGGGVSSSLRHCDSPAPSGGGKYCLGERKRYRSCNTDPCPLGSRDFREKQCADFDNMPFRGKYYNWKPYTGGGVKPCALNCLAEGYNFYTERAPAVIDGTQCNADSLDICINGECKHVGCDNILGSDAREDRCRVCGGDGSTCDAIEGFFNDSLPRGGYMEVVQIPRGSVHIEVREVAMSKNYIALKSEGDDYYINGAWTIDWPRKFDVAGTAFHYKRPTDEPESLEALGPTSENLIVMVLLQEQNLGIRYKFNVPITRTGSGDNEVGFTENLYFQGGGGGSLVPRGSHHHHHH
Assay: hADAMTS-6 fluorescent based protease assay (520 MMP FRET substrate XII)
Assay type: biochemical
Details: 37° C. for 2 h; read-out: hADAMTS-6 potency IC50
Protocol: The IC50 value for test compounds can be determined in a fluorescent based protease assay.
The substrate contains sequence Arg-Pro-Lys-Pro-Tyr-Ala-Nva-Trp-Met-Lys (SEQ ID NO: 7) with attached a fluorescent probe and a quencher. Without ADAMTS6, the emission of the probe is quenched. If the substrate is cleaved by ADAMTS6, the emission of the probe is not quenched anymore. Inhibition of ADAMTS6 activity, will result in a decrease of the signal.
To perform the assay, 4 μL of a dilution series of compound in water, starting from 20 μM highest concentration, ⅕ dilution, is added to the wells. 2 ng ADAMTS6 enzyme is diluted in 25 mM Tris pH8.0, 0.05% CHAPS, 2.5 mM CaCl2 in a total volume of 26 μL (final concentration 0.73 nM). The reaction is started by addition of 10 μL of 1 μM 520 MMP FRET Substrate XII (final concentration, diluted in same buffer as described above) and the mixture is incubated at 37° C. for 2 h. […] After this incubation, cleavage of the substrate is measured using the Envision (Perkin Elmer, exc485/em530).

Row | Structure (SMILES) | pIC50
5 | COc1cc(N2CCN(C(=O)[C@@H](C)C[C@@]3(C)NC(=O)NC3=O)C[C@@H]2C)c(C)cc1Cl (mixture of isomers) [Cpd 45, 5-[3-[(3S)-4-(4-chloro-5-methoxy-2-methyl-phenyl)-3-methyl-piperazin-1-yl]-2-methyl-3-oxo-propyl]-5-methyl-imidazolidine-2,4-dione] | < 7.00
6 | COC[C@]1(C[C@H](C)C(=O)N2CCN(c3cc(C)c(Cl)c(OC)c3)[C@@H](C)C2)NC(=O)NC1=O (mixture of isomers) [Cpd 126, 5-[3-[(3S)-4-(4-chloro-3-methoxy-5-methyl-phenyl)-3-methyl-piperazin-1-yl]-2-methyl-3-oxo-propyl]-5-(methoxymethyl)imidazolidine-2,4-dione] | 7.60 to 12.00
7 | COc1cc(N2CCN(C(=O)[C@@H](C)C[C@@]3(C)NC(=O)NC3=O)C[C@@H]2C)cc(OC)c1Cl (stereo in doubt) [Cpd 44, 5-[3-[(3S)-4-(4-chloro-3,5-dimethoxy-phenyl)-3-methyl-piperazin-1-yl]-2-methyl-3-oxo-propyl]-5-methyl-imidazolidine-2,4-dione] | 7.60 to 12.00
8 | COc1cc(N2CCN(C(=O)[C@H](C)C[C@@]3(C4CC4)NC(=O)NC3=O)C[C@@H]2C)cc(F)c1F (stereo in doubt) [Cpd 134, 5-cyclopropyl-5-[3-[(3S)-4-(3,4-difluoro-5-methoxy-phenyl)-3-methyl-piperazin-1-yl]-2-methyl-3-oxo-propyl]imidazolidine-2,4-dione] | 7.00 to 7.30
9 | COc1cc(N2CCN(C(=O)CC[C@@]3(C)NC(=O)NC3=O)CC2)c(C)cc1F [Cpd 67, (5R)-5-[3-[4-(4-fluoro-5-methoxy-2-methyl-phenyl)piperazin-1-yl]-3-oxo-propyl]-5-methyl-imidazolidine-2,4-dione] | 7.00 to 7.30
10 | COc1c(Cl)cccc1N1CCN(C(=O)CC[C@@]2(C)NC(=O)NC2=O)CC1 [Cpd 68, (5R)-5-[3-[4-(3-chloro-2-methoxy-phenyl)piperazin-1-yl]-3-oxo-propyl]-5-methyl-imidazolidine-2,4-dione] | < 7.00
11 | CCc1cc(CC)cc(N2CCN(C(=O)CC[C@@]3(C)NC(=O)NC3=O)CC2)c1 [Cpd 72, (5R)-5-[3-[4-(3,5-diethylphenyl)piperazin-1-yl]-3-oxo-propyl]-5-methyl-imidazolidine-2,4-dione] | < 7.00
12 | COc1ccc(Cl)cc1N1CCN(C(=O)CC[C@@]2(C)NC(=O)NC2=O)CC1 [Cpd 77, (5R)-5-[3-[4-(5-chloro-2-methoxy-phenyl)piperazin-1-yl]-3-oxo-propyl]-5-methyl-imidazolidine-2,4-dione] | < 7.00
13 | COc1cc(F)ccc1N1CCN(C(=O)CC[C@@]2(C)NC(=O)NC2=O)C[C@@H]1C [Cpd 81, (5R)-5-[3-[(3 S)-4-(4-fluoro-2-methoxy-phenyl)-3-methyl-piperazin-1-yl]-3-oxo-propyl]-5-methyl-imidazolidine-2,4-dione] | < 7.00
14 | COc1c(F)cccc1N1CCN(C(=O)CC[C@@]2(C)NC(=O)NC2=O)CC1 [Cpd 82, (5R)-5-[3-[4-(3-fluoro-2-methoxy-phenyl)piperazin-1-yl]-3-oxo-propyl]-5-methyl-imidazolidine-2,4-dione] | < 7.00
15 | COc1ccc(F)cc1N1CCN(C(=O)CC[C@@]2(C)NC(=O)NC2=O)CC1 [Cpd 83, (5R)-5-[3-[4-(5-fluoro-2-methoxy-phenyl)piperazin-1-yl]-3-oxo-propyl]-5-methyl-imidazolidine-2,4-dione] | < 7.00
16 | COc1c(F)cccc1N1CCN(C(=O)CC[C@@]2(C)NC(=O)NC2=O)C[C@@H]1C [Cpd 84, (5R)-5-[3-[(3 S)-4-(3-fluoro-2-methoxy-phenyl)-3-methyl-piperazin-1-yl]-3-oxo-propyl]-5-methyl-imidazolidine-2,4-dione] | < 7.00
17 | CC(C)c1cc(N2CCN(C(=O)CC[C@@]3(C)NC(=O)NC3=O)CC2)ccc1Cl [Cpd 87, (5R)-5-[3-[4-(4-chloro-3-isopropyl-phenyl)piperazin-1-yl]-3-oxo-propyl]-5-methyl-imidazolidine-2,4-dione] | 7.00 to 7.30
18 | C[C@]1(CCC(=O)N2CCN(c3ccc(Cl)c(OC(F)(F)F)c3)CC2)NC(=O)NC1=O [Cpd 88, (5R)-5-[3-[4-[4-chloro-3-(trifluoromethoxy)phenyl]piperazin-1-yl]-3-oxo-propyl]-5-methyl-imidazolidine-2,4-dione] | 7.30 to 7.60
19 | COc1cc(Cl)c(Cl)cc1N1CCN(C(=O)CC[C@@]2(C)NC(=O)NC2=O)C[C@@H]1C [Cpd 92, (5R)-5-[3-[(3 S)-4-(4,5-dichloro-2-methoxy-phenyl)-3-methyl-piperazin-1-yl]-3-oxo-propyl]-5-methyl-imidazolidine-2,4-dione] | 7.60 to 12.00
20 | COc1cc(N2CCN(C(=O)CC[C@@]3(C)NC(=O)NC3=O)CC2)c(OC)cc1Cl [Cpd 97, (5R)-5-[3-[4-(4-chloro-2,5-dimethoxy-phenyl)piperazin-1-yl]-3-oxo-propyl]-5-methyl-imidazolidine-2,4-dione] | 7.30 to 7.60
21 | CCc1cc(N2CCN(C(=O)CCC3(CC(=O)O)NC(=O)NC3=O)C[C@@H]2C)ccc1Cl (stereo partly drawn) [Cpd 98, 2-[4-[3-[(3 S)-4-(4-chloro-3-ethyl-phenyl)-3-methyl-piperazin-1-yl]-3-oxo-propyl]-2,5-dioxo-imidazolidin-4-yl]acetic acid] | 7.60 to 12.00
22 | CCc1cc(N2CCN(C(=O)CCC3(c4cccc(C)n4)NC(=O)NC3=O)C[C@@H]2C)ccc1Cl (stereo partly drawn) [Cpd 100, 5-[3-[(3 S)-4-(4-chloro-3-ethyl-phenyl)-3-methyl-piperazin-1-yl]-3-oxo-propyl]-5-(6-methyl-2-pyridyl)imidazolidine-2,4-dione] | 7.60 to 12.00
23 | Cc1cccc(C2(CCC(=O)N3CCN(c4ccc(Cl)c(OC(F)(F)F)c4)[C@@H](C)C3)NC(=O)NC2=O)n1 (stereo partly drawn) [Cpd 101, 5-[3-[(3 S)-4-[4-chloro-3-(trifluoromethoxy)phenyl]-3-methyl-piperazin-1-yl]-3-oxo-propyl]-5-(6-methyl-2-pyridyl)imidazolidine-2,4-dione] | 7.60 to 12.00
24 | CCc1cc(N2CCN(C(=O)CC[C@@]3(C)NC(=O)NC3=O)CC2)c(OC)cc1Cl [Cpd 102, (5R)-5-[3-[4-(4-chloro-5-ethyl-2-methoxy-phenyl)piperazin-1-yl]-3-oxo-propyl]-5-methyl-imidazolidine-2,4-dione] | < 7.00
25 | CCc1cc(N2CCN(C(=O)CC[C@@]3(C)NC(=O)NC3=O)C[C@@H]2C)c(OC)cc1Cl [Cpd 103, (5R)-5-[3-[(3 S)-4-(4-chloro-5-ethyl-2-methoxy-phenyl)-3-methyl-piperazin-1-yl]-3-oxo-propyl]-5-methyl-imidazolidine-2,4-dione] | < 7.00
26 | COc1cc(N2CCN(C(=O)CC[C@@]3(C)NC(=O)NC3=O)C[C@@H]2C)c(OC)cc1Cl [Cpd 104, (5R)-5-[3-[(3 S)-4-(4-chloro-2,5-dimethoxy-phenyl)-3-methyl-piperazin-1-yl]-3-oxo-propyl]-5-methyl-imidazolidine-2,4-dione] | 7.60 to 12.00
27 | COc1ccc(OC(F)(F)F)c(N2CCN(C(=O)CC[C@@]3(C)NC(=O)NC3=O)C[C@@H]2C)c1 [Cpd 108, (5R)-5-[3-[(3S)-4-[5-methoxy-2-(trifluoromethoxy)phenyl]-3-methyl-piperazin-1-yl]-3-oxo-propyl]-5-methyl-imidazolidine-2,4-dione] | < 7.00
